Test results taken from PubChem BioAssay (NCI).
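Compound exposure: 48 hours, 5 concentrations, 96-well plates. At the GI50, growth is halved. TGI: concentration producing complete growth inhibition.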

Experiments:
Experiment in all cases: NCI tumour cell line growth inhibition, 48 h; in the data active = GI50 below about 0.43 µM; inactive = the rest
A498 renal = tested on: A498 renal
HCT-15 colon = tested on: HCT-15 colon
MALME-3M melanoma = tested on: MALME-3M melanoma
LOX IMVI melanoma = tested on: LOX IMVI melanoma
DU-145 prostate = tested on: DU-145 prostate
HL-60(TB) leukemia = tested on: HL-60(TB) leukemia
COLO 205 colon = tested on: COLO 205 colon
SNB-75 CNS = tested on: SNB-75 CNS
IGROV1 ovarian = tested on: IGROV1 ovarian
UACC-257 melanoma = tested on: UACC-257 melanoma
MDA-MB-231 breast = tested on: MDA-MB-231 breast
NCI-H522 lung = tested on: NCI-H522 lung
SR leukemia = tested on: SR leukemia
ACHN renal = tested on: ACHN renal
SK-MEL-5 melanoma = tested on: SK-MEL-5 melanoma
HCT-116 colon = tested on: HCT-116 colon
NCI-H23 lung = tested on: NCI-H23 lung
T-47D breast = tested on: T-47D breast
SN12C renal = tested on: SN12C renal
PC-3 prostate = tested on: PC-3 prostate
SF-295 CNS = tested on: SF-295 CNS
K-562 leukemia = tested on: K-562 leukemia
UO-31 renal = tested on: UO-31 renal
MDA-MB-435 = tested on: MDA-MB-435
TK-10 renal = tested on: TK-10 renal
HOP-92 NSCLC = tested on: HOP-92 NSCLC
SW-620 colon = tested on: SW-620 colon
M14 melanoma = tested on: M14 melanoma
UACC-62 melanoma = tested on: UACC-62 melanoma
CCRF-CEM leukemia = tested on: CCRF-CEM leukemia
EKVX NSCLC = tested on: EKVX NSCLC
SF-539 CNS = tested on: SF-539 CNS
OVCAR-5 ovarian = tested on: OVCAR-5 ovarian
NCI/ADR-RES ovarian = tested on: NCI/ADR-RES ovarian
SF-268 CNS = tested on: SF-268 CNS
SNB-19 CNS = tested on: SNB-19 CNS
786-0 renal = tested on: 786-0 renal
KM12 colon = tested on: KM12 colon
OVCAR-4 ovarian = tested on: OVCAR-4 ovarian
MDA-N = tested on: MDA-N
A549 NSCLC = tested on: A549 NSCLC
U251 CNS = tested on: U251 CNS
SK-MEL-28 melanoma = tested on: SK-MEL-28 melanoma
MCF7 breast = tested on: MCF7 breast
HOP-62 NSCLC = tested on: HOP-62 NSCLC
SK-MEL-2 melanoma = tested on: SK-MEL-2 melanoma
HCC-2998 colon = tested on: HCC-2998 colon
HS 578T breast = tested on: HS 578T breast
OVCAR-8 ovarian = tested on: OVCAR-8 ovarian
HT29 colon = tested on: HT29 colon
CAKI-1 renal = tested on: CAKI-1 renal
RXF 393 renal = tested on: RXF 393 renal
OVCAR-3 ovarian = tested on: OVCAR-3 ovarian
RPMI-8226 leukemia = tested on: RPMI-8226 leukemia
MOLT-4 leukemia = tested on: MOLT-4 leukemia
NCI-H460 lung = tested on: NCI-H460 lung
SK-OV-3 ovarian = tested on: SK-OV-3 ovarian
NCI-H226 lung = tested on: NCI-H226 lung
BT-549 breast = tested on: BT-549 breast

O=C1c2[nH]c3ccc(Br)cc3c2CCN1Cc1ccc(Cl)cc1
47.4 µM: TGI (SK-MEL-2 melanoma)
37.9 µM: TGI (NCI-H522 lung)
28.6 µM: TGI (MDA-MB-435)
40.6 µM: TGI (NCI/ADR-RES ovarian)
26.8 µM: TGI (U251 CNS)
32.3 µM: TGI (NCI-H23 lung)
27.7 µM: TGI (TK-10 renal)
31.1 µM: TGI (UO-31 renal)
28.7 µM: TGI (MDA-MB-231 breast)
31.6 µM: TGI (SK-MEL-28 melanoma)
33.2 µM: TGI (SF-268 CNS)
48.5 µM: TGI (OVCAR-8 ovarian)
34.3 µM: TGI (OVCAR-4 ovarian)
26.2 µM: TGI (SF-295 CNS) | TGI (OVCAR-5 ovarian)
18.1 µM: TGI (HCT-15 colon)
99.1 µM: TGI (HL-60(TB) leukemia)
> 100 µM: TGI (K-562 leukemia) | TGI (CCRF-CEM leukemia) | TGI (EKVX NSCLC) | TGI (HT29 colon)
43.3 µM: TGI (HS 578T breast)
33.4 µM: TGI (HOP-92 NSCLC)
36.1 µM: TGI (KM12 colon)
35.7 µM: TGI (MCF7 breast)
32.7 µM: TGI (SNB-19 CNS)
44.5 µM: TGI (SR leukemia)
23 µM: TGI (SK-MEL-5 melanoma)
25.9 µM: TGI (LOX IMVI melanoma)
22.7 µM: TGI (ACHN renal)
34.5 µM: TGI (COLO 205 colon)
28.2 µM: TGI (UACC-62 melanoma)
30.7 µM: TGI (MDA-N)
24.1 µM: TGI (786-0 renal)
26.9 µM: TGI (A549 NSCLC)
39.9 µM: TGI (SN12C renal)
28.5 µM: TGI (M14 melanoma) | TGI (OVCAR-3 ovarian)
33.7 µM: TGI (MALME-3M melanoma)
29.2 µM: TGI (T-47D breast)
30 µM: TGI (UACC-257 melanoma)
34.1 µM: TGI (A498 renal)
28.3 µM: TGI (DU-145 prostate) | TGI (HCC-2998 colon)
34.8 µM: TGI (SW-620 colon)
26.4 µM: TGI (HOP-62 NSCLC)
36.4 µM: TGI (RXF 393 renal)
23.5 µM: TGI (HCT-116 colon)
34.4 µM: TGI (CAKI-1 renal)
25.5 µM: TGI (SF-539 CNS)
35.5 µM: TGI (IGROV1 ovarian)
19.4 µM: TGI (PC-3 prostate)
38.5 µM: TGI (SNB-75 CNS)

COC(=O)Nc1nc2ccc(Oc3ccc(NC(=O)Nc4cc(C(F)(F)F)ccc4F)cc3)cc2s1
> 20.2 µM: TGI (OVCAR-4 ovarian)
active: GI50 (MALME-3M melanoma) 0.343 µM | GI50 (K-562 leukemia) 0.0202 µM | GI50 (HOP-92 NSCLC) 0.288 µM | GI50 (KM12 colon) 0.0859 µM
inactive: GI50 (HCT-15 colon) 24.3 µM | GI50 (LOX IMVI melanoma) 3.65 µM | GI50 (DU-145 prostate) 10.6 µM | GI50 (HL-60(TB) leukemia) > 13.5 µM | GI50 (COLO 205 colon) > 25 µM | GI50 (SNB-75 CNS) 6.76 µM | GI50 (IGROV1 ovarian) > 25 µM | GI50 (UACC-257 melanoma) > 25 µM | GI50 (MDA-MB-231 breast) 9.05 µM | GI50 (NCI-H522 lung) > 25 µM | GI50 (SR leukemia) 5.66 µM | GI50 (ACHN renal) > 25 µM | GI50 (SK-MEL-5 melanoma) > 25 µM | GI50 (HCT-116 colon) 8.8 µM | GI50 (NCI-H23 lung) 9.25 µM | GI50 (T-47D breast) > 18 µM | GI50 (SN12C renal) > 17.3 µM | GI50 (PC-3 prostate) 11.5 µM | GI50 (RPMI-8226 leukemia) > 25 µM | GI50 (MOLT-4 leukemia) > 25 µM | GI50 (SF-295 CNS) 24.8 µM | GI50 (UO-31 renal) > 25 µM | GI50 (MDA-MB-435) 7.37 µM | GI50 (NCI-H460 lung) 10.2 µM | GI50 (TK-10 renal) > 25 µM | GI50 (SW-620 colon) 9.85 µM | GI50 (M14 melanoma) 2.83 µM | GI50 (UACC-62 melanoma) 3.9 µM | GI50 (CCRF-CEM leukemia) > 23.7 µM | GI50 (EKVX NSCLC) > 14.7 µM | GI50 (SF-539 CNS) > 25 µM | GI50 (OVCAR-5 ovarian) > 25 µM | GI50 (NCI/ADR-RES ovarian) 14.5 µM | GI50 (SF-268 CNS) 8.5 µM | GI50 (SNB-19 CNS) > 25 µM | GI50 (SK-OV-3 ovarian) > 25 µM | GI50 (786-0 renal) > 25 µM | GI50 (NCI-H226 lung) > 25 µM | GI50 (OVCAR-4 ovarian) 7.24 µM | GI50 (BT-549 breast) > 25 µM | GI50 (A549 NSCLC) 15 µM | GI50 (U251 CNS) 13.6 µM | GI50 (SK-MEL-28 melanoma) 13.9 µM | GI50 (MCF7 breast) > 19.6 µM | GI50 (HOP-62 NSCLC) 16.7 µM | GI50 (SK-MEL-2 melanoma) > 5.02 µM | GI50 (HCC-2998 colon) > 25 µM | GI50 (HS 578T breast) 6.21 µM | GI50 (OVCAR-8 ovarian) 8.67 µM | GI50 (HT29 colon) 12.7 µM | GI50 (CAKI-1 renal) > 25 µM | GI50 (RXF 393 renal) > 25 µM | GI50 (OVCAR-3 ovarian) > 23.9 µM
> 25 µM: TGI (A498 renal) | TGI (HCT-15 colon) | TGI (MALME-3M melanoma) | TGI (LOX IMVI melanoma) | TGI (DU-145 prostate) | TGI (HL-60(TB) leukemia) | TGI (COLO 205 colon) | TGI (IGROV1 ovarian) | TGI (UACC-257 melanoma) | TGI (MDA-MB-231 breast) | TGI (NCI-H522 lung) | TGI (SR leukemia) | TGI (ACHN renal) | TGI (SK-MEL-5 melanoma) | TGI (HCT-116 colon) | TGI (NCI-H23 lung) | TGI (T-47D breast) | TGI (SN12C renal) | TGI (PC-3 prostate) | TGI (RPMI-8226 leukemia) | TGI (MOLT-4 leukemia) | TGI (SF-295 CNS) | TGI (K-562 leukemia) | TGI (UO-31 renal) | TGI (MDA-MB-435) | TGI (NCI-H460 lung) | TGI (TK-10 renal) | TGI (HOP-92 NSCLC) | TGI (SW-620 colon) | TGI (M14 melanoma) | TGI (UACC-62 melanoma) | TGI (CCRF-CEM leukemia) | TGI (EKVX NSCLC) | TGI (SF-539 CNS) | TGI (OVCAR-5 ovarian) | TGI (NCI/ADR-RES ovarian) | TGI (SF-268 CNS) | TGI (SNB-19 CNS) | TGI (SK-OV-3 ovarian) | TGI (786-0 renal) | TGI (NCI-H226 lung) | TGI (KM12 colon) | TGI (BT-549 breast) | TGI (A549 NSCLC) | TGI (U251 CNS) | TGI (SK-MEL-28 melanoma) | TGI (MCF7 breast) | TGI (HOP-62 NSCLC) | TGI (SK-MEL-2 melanoma) | TGI (HCC-2998 colon) | TGI (HS 578T breast) | TGI (OVCAR-8 ovarian) | TGI (HT29 colon) | TGI (CAKI-1 renal) | TGI (RXF 393 renal) | TGI (OVCAR-3 ovarian)
> 23.8 µM: TGI (SNB-75 CNS)

CCOC(=S)SSSC(=S)OCC
46.8 µM: TGI (HCT-15 colon)
60 µM: TGI (T-47D breast)
70 µM: TGI (SN12C renal)
86.6 µM: TGI (OVCAR-5 ovarian)
94.7 µM: TGI (MOLT-4 leukemia)
61.1 µM: TGI (RPMI-8226 leukemia)
> 100 µM: TGI (A498 renal) | TGI (MALME-3M melanoma) | TGI (LOX IMVI melanoma) | TGI (DU-145 prostate) | TGI (HL-60(TB) leukemia) | TGI (COLO 205 colon) | TGI (SNB-75 CNS) | TGI (UACC-257 melanoma) | TGI (MDA-MB-231 breast) | TGI (SK-MEL-5 melanoma) | TGI (NCI-H23 lung) | TGI (PC-3 prostate) | TGI (SF-295 CNS) | TGI (K-562 leukemia) | TGI (MDA-MB-435) | TGI (NCI-H460 lung) | TGI (TK-10 renal) | TGI (HOP-92 NSCLC) | TGI (SW-620 colon) | TGI (M14 melanoma) | TGI (UACC-62 melanoma) | TGI (CCRF-CEM leukemia) | TGI (EKVX NSCLC) | TGI (SF-539 CNS) | TGI (NCI/ADR-RES ovarian) | TGI (SF-268 CNS) | TGI (SNB-19 CNS) | TGI (SK-OV-3 ovarian) | TGI (NCI-H226 lung) | TGI (KM12 colon) | TGI (MDA-N) | TGI (A549 NSCLC) | TGI (U251 CNS) | TGI (SK-MEL-28 melanoma) | TGI (MCF7 breast) | TGI (HOP-62 NSCLC) | TGI (HCC-2998 colon) | TGI (HS 578T breast) | TGI (HT29 colon) | TGI (CAKI-1 renal) | TGI (RXF 393 renal) | TGI (OVCAR-3 ovarian)
28.5 µM: TGI (786-0 renal)
42.1 µM: TGI (SR leukemia)
53.7 µM: TGI (HCT-116 colon)
41.9 µM: TGI (ACHN renal)
32.3 µM: TGI (OVCAR-8 ovarian)
